Data taken from patent US20030073618A1, “Compounds comprising disulfide-containing peptides and nitrogenous bases, and medical uses thereof” (priority 2001, published 2003).
Where two headings read alike, the source gives them in different places.

What was measured:
[1] = system: mycobacterium tuberculosis; details: for CD4+ / CD4/CD8 / CD8+ / IL-1 / IL-4 / IL-6 / IL-8 / IL-12 / Lymphocytes: blood immune test; for ESR / Erythrocytes / Hemoglobin / Leukocytes / Monocytes / Platelets / Segmented neutrophils / Stab neutrophils: general blood test
HIV = type: in vivo; parameters: Hemoglobin / Platelets / Leukocytes / ESR: unit not given beside the values; (CD25+) / HLA-DR / (CD16) / IgA / IgM / IgG / CIC / (CD20+) / CD4+ / CD8+: unit not given here; details: for Lymphocyte count / Weight gained / Karnovsky score: Ex. 13; for Karnovsky score: on admission 75; for Erythrocytes / Hemoglobin / Leukocytes / Monocytes / Platelets / Segmented neutrophils / Stab neutrophils / ESR: general blood test; for (CD16) / (CD20+) / (CD25+) / CD4+ / CD4/CD8 / CD8+ / CIC / HLA-DR / IgA / IgG / IgM: immune blood test
[2] = Ex. 16, on treatment completion

## N[C@@H](CCC(=O)N[C@@H](CSSC[C@H](NC(=O)CC[C@H](NP(=O)(O)OC[C@H]1O[C@@H](n2cnc3c(=O)[nH]cnc32)[C@H](O)[C@@H]1O)C(=O)O)C(=O)NCC(=O)[O-])C(=O)NCC(=O)[O-])C(=O)O.[Li+].[Li+] [Example 16]
[1]; 19.12.98
  CD4+: 860
  CD4/CD8: 1.53
  CD8+: 563
  IL-1: 46
  IL-4: 37
  IL-6: 44
  IL-8: 50
  IL-12: 39
  Lymphocytes: 1400
  ESR: 13
  Erythrocytes: 4.3
  Hemoglobin: 132
  Leukocytes: 5.2
  Monocytes: 2
  Platelets: 230
  Segmented neutrophils: 51
  Stab neutrophils: 1
[1]; 20.10.98
  CD4+: 199
  CD4/CD8: 0.56
  CD8+: 357
  IL-1: 22
  IL-4: 32
  IL-6: 16
  IL-8: 23
  IL-12: 14
  Lymphocytes: 832
  ESR: 50
  Erythrocytes: 3.7
  Hemoglobin: 108
  Leukocytes: 9.9
  Monocytes: 12
  Platelets: 260
  Segmented neutrophils: 57
  Stab neutrophils: 12
[1]; 21.01.99
  CD4+: 892
  CD4/CD8: 1.50
  CD8+: 594
  IL-1: 39
  IL-4: 34
  IL-6: 39
  IL-8: 48
  IL-12: 47
  Lymphocytes: 1680
  ESR: 11
  Erythrocytes: 4.2
  Hemoglobin: 128
  Leukocytes: 6.8
  Monocytes: 5
  Platelets: 210
  Segmented neutrophils: 50
  Stab neutrophils: 3
[1]; 21.11.98
  CD4+: 527
  CD4/CD8: 1.25
  CD8+: 422
  IL-1: 29
  IL-4: 30
  IL-6: 29
  IL-8: 45
  IL-12: 28
  Lymphocytes: 1350
  ESR: 27
  Erythrocytes: 4.2
  Hemoglobin: 128
  Leukocytes: 5.2
  Monocytes: 4
  Platelets: 210
  Segmented neutrophils: 53
  Stab neutrophils: 6

## N[C@@H](CCC(=O)N[C@@H](CSSC[C@H](NC(=O)CC[C@H](NP(=O)(O)OC[C@H]1O[C@@H](n2cnc3c(=O)[nH]cnc32)[C@H](O)[C@@H]1O)C(=O)O)C(=O)NCC(=O)[O-])C(=O)NCC(=O)[O-])C(=O)O.[Li+].[Li+] [Li2-GSSG-IMP]
[1]; Ex. 16, in 2 months
  Karnovsky score: 75
[1]; Ex. 16, in 2 months, on admission 37.5
  Temperature: 36.7 °C
[1]; Ex. 16, in a month
  Weight gained: 4 kg
[1]; Ex. 16, in a month, on admission 50, with antibacterial therapy
  Karnovsky score: 70
[1]; Ex. 16, in a month, on admission up to 100
  Bacterial discharge, in the vision field by microscopy: 2-4
[1]; [2]
  Karnovsky score: 90
  Temperature: 36.6 °C
[1]; Ex. 16, on treatment completion, on admission 4×3 cm
  X-ray, destruction cavity: destruction cavity in the left lung upper lobe healed

## Cc1cn([C@H]2C[C@H](O)[C@@H](COP(=O)(O)N[C@@H](CCC(=O)N[C@@H](CSSC[C@H](NC(=O)CC[C@H](N)C(=O)O)C(=O)NCC(=O)[O][Zn])C(=O)NCC(=O)[O][Zn])C(=O)O)O2)c(=O)[nH]c1=O [Zn2-GSSG-TMP]
HIV; 1-month treatment
  Viral load: 66000 copies of HIV RNA/ml
HIV; after 1-month treatment
  Lymphocyte count: 1276
  Weight gained: 1.8 kg
  Karnovsky score: 80
HIV; after completion of treatment
  Lymphocyte count: 2295
  Weight gained: 2.5 kg
  Karnovsky score: 90
HIV; Initial value
  Viral load: 80000 copies of HIV RNA/ml
HIV; Treatment completion
  Viral load: 15000 copies of HIV RNA/ml
HIV; 01.04.96
  Erythrocytes: 3.9
  Hemoglobin: 126
  Leukocytes: 3.5
  Monocytes: 2
  Platelets: 180
  Segmented neutrophils: 41
  Stab neutrophils: 3
HIV; 03.04.96
  ESR: 21
  Erythrocytes: 3.9
  Hemoglobin: 125
  Leukocytes: 2.6
  Monocytes: 7
  Platelets: 170
  Segmented neutrophils: 47
  Stab neutrophils: 8
  (CD16): 198
  (CD20+): 217
  (CD25+): 207
  CD4+: 247
  CD4/CD8: 0.89
  CD8+: 277
  CIC: 0.175
  HLA-DR: 237
  IgA: 2.1
  IgG: 20
  IgM: 4.6
HIV; 13.03.96
  ESR: 18
  Erythrocytes: 5
  Hemoglobin: 160
  Leukocytes: 2.4
  Monocytes: 2
  Platelets: 200
  Segmented neutrophils: 48
  Stab neutrophils: 5
  (CD16): 216
  (CD20+): 256
  (CD25+): 226
  CD4+: 276
  CD4/CD8: 0.78
  CD8+: 354
  CIC: 0.09
  HLA-DR: 354
  IgA: 1.8
  IgG: 18.8
  IgM: 2.6
HIV; 15.05.96
  ESR: 12
  Erythrocytes: 4.2
  Hemoglobin: 136
  Leukocytes: 4.5
  Monocytes: 3
  Platelets: 190
  Segmented neutrophils: 49
  Stab neutrophils: 7
  (CD16): 505
  (CD20+): 390
  (CD25+): 482
  CD4+: 574
  CD4/CD8: 0.96
  CD8+: 597
  CIC: 0.075
  HLA-DR: 665
  IgA: 1.5
  IgG: 28
  IgM: 3.1
HIV; 16.04.96
  ESR: 20
  Erythrocytes: 4
  Hemoglobin: 129
  Leukocytes: 2.9
  Monocytes: 2
  Platelets: 180
  Segmented neutrophils: 45
  Stab neutrophils: 8
HIV; 28.03.96
  ESR: 16
  Erythrocytes: 4.3
  Hemoglobin: 136
  Leukocytes: 2.9
  Monocytes: 2
  Segmented neutrophils: 35
  Stab neutrophils: 4
HIV; 17.04.96
  (CD16): 332
  (CD20+): 306
  (CD25+): 332
  CD4+: 319
  CD4/CD8: 0.86
  CD8+: 370
  CIC: 0.11
  HLA-DR: 434
  IgA: 1.6
  IgG: 24
  IgM: 5.2
